According to patent US20250353856A1, “COMPOUND ACTIVE AS INHIBITOR OF COLONY STIMULATION FACTOR-1 RECEPTOR (CSF-1R)” (Norwegian University of Science and Technology (NTNU), priority 2022, published 2025):
Read-outs that look alike come from different tables or passages of the source.

How the values were obtained:
CSF1R enzyme = CSF1R enzyme (Homo sapiens (Human), UniProt P07333); experiment: CSF1R enzymatic inhibitory assay (Z'-LYTE, FRET); format: biochemical; settings: Z'-LYTE assay platform, 10-point titrations in duplicates, ATP equal to Km
Chain of CSF1R enzyme (P07333 20-972): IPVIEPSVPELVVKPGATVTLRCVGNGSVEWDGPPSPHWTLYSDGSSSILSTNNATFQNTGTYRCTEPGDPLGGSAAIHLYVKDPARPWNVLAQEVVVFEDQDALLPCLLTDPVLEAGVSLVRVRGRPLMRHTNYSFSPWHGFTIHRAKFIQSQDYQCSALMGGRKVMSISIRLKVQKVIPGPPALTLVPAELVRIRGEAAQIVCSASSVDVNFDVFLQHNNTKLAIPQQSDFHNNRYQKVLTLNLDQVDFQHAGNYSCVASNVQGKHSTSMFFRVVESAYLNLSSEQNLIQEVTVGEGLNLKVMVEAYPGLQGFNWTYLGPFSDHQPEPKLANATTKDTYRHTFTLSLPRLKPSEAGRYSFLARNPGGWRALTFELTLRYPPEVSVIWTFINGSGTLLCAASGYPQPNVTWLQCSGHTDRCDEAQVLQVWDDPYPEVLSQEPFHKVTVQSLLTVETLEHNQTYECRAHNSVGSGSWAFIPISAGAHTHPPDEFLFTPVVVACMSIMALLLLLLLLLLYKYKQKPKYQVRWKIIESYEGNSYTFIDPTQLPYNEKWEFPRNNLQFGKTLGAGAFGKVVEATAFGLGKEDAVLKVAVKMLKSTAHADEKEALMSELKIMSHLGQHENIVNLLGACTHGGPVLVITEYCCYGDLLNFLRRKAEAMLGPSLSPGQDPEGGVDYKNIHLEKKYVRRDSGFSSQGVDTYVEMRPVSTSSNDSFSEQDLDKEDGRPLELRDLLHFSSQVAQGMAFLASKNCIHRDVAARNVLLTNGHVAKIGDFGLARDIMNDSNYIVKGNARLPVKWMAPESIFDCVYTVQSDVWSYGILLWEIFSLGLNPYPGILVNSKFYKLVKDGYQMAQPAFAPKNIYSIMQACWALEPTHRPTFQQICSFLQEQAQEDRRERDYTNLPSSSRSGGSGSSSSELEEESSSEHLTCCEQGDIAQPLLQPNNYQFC

[1] = target: CSF1R in bone-marrow derived macrophages from mice (Mus musculus (Mouse), UniProt P09581); experiment: Effect of CSF1R inhibitors on MAPK signalling in mouse bone-marrow derived macrophages; format: cell-based; settings: for BMDM fold relative to PLX3397: Fold change: IC50 inhibitor/IC50 PLX3397, mouse BMDM
Chain of CSF1R in bone-marrow derived macrophages from mice (P09581 20-977): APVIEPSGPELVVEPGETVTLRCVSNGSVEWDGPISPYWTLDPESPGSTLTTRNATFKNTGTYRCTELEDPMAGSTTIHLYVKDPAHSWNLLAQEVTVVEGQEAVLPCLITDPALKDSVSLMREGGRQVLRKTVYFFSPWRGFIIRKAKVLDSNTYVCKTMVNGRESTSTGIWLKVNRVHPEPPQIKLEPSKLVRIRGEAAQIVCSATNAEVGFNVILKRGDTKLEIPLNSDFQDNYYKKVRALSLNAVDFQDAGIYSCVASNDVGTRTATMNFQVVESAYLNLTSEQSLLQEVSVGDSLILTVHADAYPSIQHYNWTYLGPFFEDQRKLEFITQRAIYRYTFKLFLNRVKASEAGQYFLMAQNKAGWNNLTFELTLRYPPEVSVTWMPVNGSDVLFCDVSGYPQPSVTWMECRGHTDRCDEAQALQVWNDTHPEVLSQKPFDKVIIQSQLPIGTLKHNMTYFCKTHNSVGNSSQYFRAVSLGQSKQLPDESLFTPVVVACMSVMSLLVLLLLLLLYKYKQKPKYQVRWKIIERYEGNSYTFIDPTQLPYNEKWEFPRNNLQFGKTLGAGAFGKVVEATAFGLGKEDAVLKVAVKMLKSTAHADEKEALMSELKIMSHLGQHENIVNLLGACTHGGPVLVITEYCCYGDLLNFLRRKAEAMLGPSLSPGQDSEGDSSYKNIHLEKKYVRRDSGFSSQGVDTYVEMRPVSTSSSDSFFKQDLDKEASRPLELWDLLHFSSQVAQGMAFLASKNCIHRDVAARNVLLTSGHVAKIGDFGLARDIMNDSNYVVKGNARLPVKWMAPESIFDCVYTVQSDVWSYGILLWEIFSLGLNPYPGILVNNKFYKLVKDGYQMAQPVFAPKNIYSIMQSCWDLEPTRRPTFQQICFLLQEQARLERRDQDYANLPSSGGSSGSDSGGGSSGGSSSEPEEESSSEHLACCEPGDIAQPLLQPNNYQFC

IC50 (CSF1R enzyme) | BMDM fold relative to PLX3397 [1] | IC50 ([1]; read-out: BMDM IC50) | Structure (SMILES) | IC50 [1]
1.3 nM | 1 fold | 130 nM | OCc1ccc(-c2cc3c(Cc4ccccc4)ncnc3[nH]2)cc1 [Compound 5a, (4-(4-Benzyl-7H-pyrrolo[2,3-d]pyrimidin-6-yl)phenyl)methanol] | –
0.7 nM | 5 fold | 487 nM | OCc1ccc(-c2cc3c(Cc4ccccc4F)ncnc3[nH]2)cc1 [Compound 5b, (4-(4-(2-Fluorobenzyl)-7H-pyrrolo[2,3-d]pyrimidin-6-yl)phenyl)methanol] | –
1.9 nM | >5 fold | > 500 nM | OCc1ccc(-c2cc3c(Cc4cccc(F)c4)ncnc3[nH]2)cc1 [Compound 5c, (4-(4-(3-Fluorobenzyl)-7H-pyrrolo[2,3-d]pyrimidin-6-yl)phenyl)methanol] | –
3.1 nM | 4.1 fold | 320 nM | OCc1ccc(-c2cc3c(Cc4ccc(F)cc4)ncnc3[nH]2)cc1 [Compound 5d, (4-(4-(4-Fluorobenzyl)-7H-pyrrolo[2,3-d]pyrimidin-6-yl)phenyl)methanol] | –
1 nM | >3 fold | > 300 nM | Cc1ccc(Cc2ncnc3[nH]c(-c4ccc(CO)cc4)cc23)cc1 [Compound 5e, (4-(4-(4-Methylbenzyl)-7H-pyrrolo[2,3-d]pyrimidin-6-yl)phenyl)methanol] | –
0.6 nM | 0.8 fold | 71 nM | CC(C)c1ccc(Cc2ncnc3[nH]c(-c4ccc(CO)cc4)cc23)cc1 [Compound 5f, (4-(4-(4-Isopropylbenzyl)-7H-pyrrolo[2,3-d]pyrimidin-6-yl)phenyl)methanol] | –
1.6 nM | 1.7 fold | 174 nM | CC(C)(C)c1ccc(Cc2ncnc3[nH]c(-c4ccc(CO)cc4)cc23)cc1 [Compound 5g, (4-(4-(4-(tert-Butyl)benzyl)-7H-pyrrolo[2,3-d]pyrimidin-6-yl)phenyl)methanol] | –
3.6 nM | >5 fold | > 500 nM | OCc1ccc(-c2cc3c(Cc4ccc(C(F)(F)F)cc4)ncnc3[nH]2)cc1 [Compound 5h, (4-(4-(4-(Trifluoromethyl)benzyl)-7H-pyrrolo[2,3-d]pyrimidin-6-yl)phenyl)methanol] | –
3.8 nM | >5 fold | > 500 nM | CC(c1ccccc1)c1ncnc2[nH]c(-c3ccc(CO)cc3)cc12 (centres unmarked) [Compound 5i, (4-(4-(1-Phenylethyl)-7H-pyrrolo[2,3-d]pyrimidin-6-yl)phenyl)methanol] | –
29 nM | >5 fold | > 500 nM | CCC(c1ccccc1)c1ncnc2[nH]c(-c3ccc(CO)cc3)cc12 (centres unmarked) [Compound 5j, (4-(4-(1-Phenylpropyl)-7H-pyrrolo[2,3-d]pyrimidin-6-yl)phenyl)methanol] | –
2.7 nM | 1.3 fold | 100 nM | OCc1ccc(-c2cc3c(C(F)c4ccccc4)ncnc3[nH]2)cc1 (centres unmarked) [Compound 5k, (4-(4-(Fluoro(phenyl)methyl)-7H-pyrrolo[2,3-d]pyrimidin-6-yl)phenyl)methanol] | –
1.5 nM | 1 fold | 107 nM | OCc1ccc(-c2cc3c(Oc4ccccc4)ncnc3[nH]2)cc1 [Compound 9, (4-(4-Phenoxy-7H-pyrrolo[2,3-d]pyrimidin-6-yl)phenyl)methanol] | –
11 nM | – | – | COc1ccc(-c2cc3c(Cc4ccccc4)ncnc3[nH]2)cc1 [Compound 10, 4-Benzyl-6-(4-methoxyphenyl)-7H-pyrrolo[2,3-d]pyrimidine] | –
2.1 nM | – | – | CS(=O)(=O)Nc1ccc(-c2cc3c(Cc4ccccc4)ncnc3[nH]2)cc1 [Compound 14, N-(4-(4-Benzyl-7H-pyrrolo[2,3-d]pyrimidin-6-yl)phenyl)methanesulfonamide] | –
7.2 nM | – | – | c1ccc(Cc2ncnc3[nH]c(-c4ccccc4)cc23)cc1 [Compound 15, 4-Benzyl-6-phenyl-7H-pyrrolo[2,3-d]pyrimidine] | –
1.7 nM | – | – | CNS(=O)(=O)c1ccc(-c2cc3c(Cc4ccccc4)ncnc3[nH]2)cc1 [Compound 16, 4-(4-Benzyl-7H-pyrrolo[2,3-d]pyrimidin-6-yl)-N-methylbenzenesulfonamide] | –
2 nM | – | – | CC(C)n1cc(-c2cc3c(Cc4ccccc4)ncnc3[nH]2)cn1 [Compound 17, 4-Benzyl-6-(1-isopropyl-1H-pyrazol-4-yl)-7H-pyrrolo[2,3-d]pyrimidine] | –
0.4 nM | – | – | Cc1nn(C)cc1-c1cc2c(Cc3ccccc3)ncnc2[nH]1 [Compound 18, 4-Benzyl-6-(1,3-dimethyl-1H-pyrazol-4-yl)-7H-pyrrolo[2,3-d]pyrimidine] | –
1.5 nM | – | – | CP(C)(=O)c1ccc(-c2cc3c(Cc4ccccc4)ncnc3[nH]2)cc1 [Compound 19, (4-(4-Benzyl-7H-pyrrolo[2,3-d]pyrimidin-6-yl)phenyl)dimethylphosphine oxide] | –
– | – | – | FC(F)(F)c1ccc(CNc2ccc(Cc3c[nH]c4ncc(Cl)cc34)cn2)cn1 [PLX3397, reference compound] | 70 to 150 nM
